The values that follow come from PubChem BioAssay AID504824 (The Scripps Research Institute Molecular Screening Center, 2011).

Activity calls are given as the source filed them.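 The calls were made as follows: active = compound reaching half of full procaspase-3 activation at 10 µM or lower; inactive = the rest.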

The target of this assay is Caspase-3 (Homo sapiens) (UniProt P42574). Put plainly: activators of human procaspase-3 D3A mutant – biochemical, absorbance, PC-3 D3A mutant, powder samples, counter-screen for dual procaspase-3/7 activator project, late-stage follow-up (AID 504824). The conditions noted are these: recombinant PC-3 D3A, Ac-DEVD-pNA absorbance 405 nm. On the technique in general: The purpose of a counterscreen is to sort out artefacts and off-target activity.
Sequence of Caspase-3 (Homo sapiens) (P42574 whole entry D9A/D28A/D175A): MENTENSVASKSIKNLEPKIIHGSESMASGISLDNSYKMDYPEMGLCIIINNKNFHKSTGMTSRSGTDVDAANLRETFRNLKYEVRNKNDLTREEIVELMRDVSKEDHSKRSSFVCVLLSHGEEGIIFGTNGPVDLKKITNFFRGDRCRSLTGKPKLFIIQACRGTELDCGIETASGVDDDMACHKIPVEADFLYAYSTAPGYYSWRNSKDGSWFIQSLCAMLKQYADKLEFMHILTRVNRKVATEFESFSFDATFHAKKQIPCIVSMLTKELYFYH
As for `O=C(C1=NN(c2ccccc2)C2C(=O)N(c3ccccc3)C(=O)C12)c1ccccc1` (stereo not given), the EC50 (usually the concentration giving half of the maximal effect) was > 85.3 µM (inactive).
The result for `COc1ccccc1N1C(=O)C2C(C(=O)c3ccccc3)=NN(c3ccccc3)C2C1=O` (stereo not given) reads > 85.3 µM (inactive); that for `O=C(Nc1ccc(Cc2ccncc2)cc1)C1CCC(N2C(=O)C3C4C=CC(C5CC45)C3C2=O)CC1` (stereo not given), > 85.3 µM (inactive); that for `COC(=O)C1=NN(c2ccc(Cl)cc2)C2C(=O)N(c3ccccc3OC)C(=O)C12` (stereo not given), > 85.3 µM (inactive).
With `Cc1[nH]nc2c1C(c1c[nH]c3ccccc13)C(C#N)=C(N)O2` (stereo not given), the EC50 was 3.62 µM.
